Test results as given in BindingDB's records for doi:10.1021/jm9811209 (Novartis Horsham Research Centre, 1999).
pKi: −log10 of the molar value.

Assay: The compound was evaluated for the inhibitory activity against human thrombin

CC1(C)CNc2c(cccc2S(=O)(=O)NC(CCCNC(=N)N)C(=O)N2CCC(CCO)CC2)C1 (stereo unspecified) [3,3-Dimethyl-1,2,3,4-tetrahydro-quinoline-8-sulfonic acid {4-guanidino-1-[4-(2-hydroxy-ethyl)-piperidine-1-carbonyl]-butyl}-amide]
pKi: 7.49
